≈ marks a conversion by molar mass, not a printed value.
System: T-REx™-G2A-NFAT-bla Freestyle™293F cells
Experiment: T-REx G2A NFAT-bla Freestyle 293F beta-lactamase reporter assay (inducer dose response)
Conditions: for EC50: Homo sapiens, FreeStyle 293-F
Description: In order to control the levels of G2A expression, G2A was placed under the control of an inducible promoter using Invitrogen's T-REx™ system. To again assess feasibility, pcDNA 5 G2A/TO was transiently transfected into CRE-bla Freestyle™ and NFAT-bla Freestyle™ cell lines stably expressing the T-REx™ Tet repressor plasmid (pcDNA6/TR; e.g., catalog# V1025-20, Invitrogen, Carlsbad, Calif.). The transfected cells were then treated with 10 ug/mL, 1 ug/mL, or 100 ng/mL tetracycline for 24 h to induce G2A expression. […] Stable pools of cells were created in both the TR CRE-bla and TR NFAT-bla Freestyle™293F backgrounds.
Stimulation Kinetics—Selected pools of both CRE-bla and NFAT-bla T-REx™ G2A Freestyle™ cells were stimulated with tetracycline for 3, 4, 5, or 24 h and loaded for 2 h with 1 μM LiveBLAzer™-FRET B/G substrate.
To improve the balance between tetracycline-induced signaling and cell death by testing shorter induction times, lower tetracycline concentrations and altered culture conditions were utilized to promote cell health. A 16 h tetracycline stimulation time was attempted on the pools from the first sort. Cells were plated at 10,000 cells/well 24 hours prior to assay in DMEM+10% dFBS and incubated at 37° C./5% CO2 until time of assay. The cells were stimulated for 16 hours (e.g., overnight) with a dilution series of the tetracycline. Following stimulation, the cells were loaded for 2 hours at room temperature in the dark with LiveBLAzer™-FRET B/G loading solution containing 1 μM substrate. This assay was done in Poly-D-Lysine coated plates.
Since G2A has no known agonists, doxycycline and tetracycline were compared as inducers of the assay. An antibiotic selected pool of cells were plated at 10,000 cells/well 24 hours prior to assay in DMEM+10% dFBS and incubated at 37° C./5% CO2 until time of assay. The cells were stimulated with a dilution series of each compound for 16 hours at 37° C./5% CO2 and loaded for 2 hours at room temperature in the dark with LiveBLAzer™-FRET B/G loading solution containing 1 μM substrate.
Cell Density/well—The influence of cell-plating density on assay performance was tested to find the density giving the best response and Z′ while maintaining the expected pharmacology. Cells were plated 24 hours prior to the assay at the densities indicated in FIG. 14 in DMEM+10% dFBS and incubated at 37° C./5% CO2 until the time of assay. The cells were stimulated for 16 hours at 37° C./5% CO2 with a dilution series of the doxycycline. After incubation, the cells were loaded for 2 hours at room temperature in the dark with LiveBLAzer™-FRET B/G loading solution containing 1 μM substrate.
DMSO Tolerance—Tests were performed related to assay performance as a function of DMSO concentration to determine the robustness of the assay to the range of DMSO challenge routinely encountered during high-throughput screening. Dose response curves were performed in the presence of 0%, 0.25%, 0.5%, or 1% DMSO. Cells were plated at 10,000 cells/well 24 hours prior to assay in DMEM+10% dFBS and incubated at 37° C./5% CO2 until time of assay. After incubation, DMSO was added to the wells to final concentrations of 0%, 0.25%, 0.5% and 1% DMSO. The cells were stimulated for 16 hours with a dilution series of the doxycycline. Following stimulation, the cells were loaded for 2 hours at room temperature in the dark with LiveBLAzer™-FRET B/G loading solution containing 1 μM substrate.
The substrate loading times were varied to find the time for an optimal assay performance. Cells were plated at 10,000 cells/well 24 hours prior to assay in DMEM+10% dFBS and incubated at 37° C./5% CO2 until time of assay. After incubation, DMSO was added to the wells to final concentration of 0.5%.

[1] = 60 min substrate loading, 10,000 cells/well, 0.5% DMSO, 16 h
[2] = 90 min substrate loading, 10,000 cells/well, 0.5% DMSO, 16 h
[3] = 120 min substrate loading, 10,000 cells/well, 0.5% DMSO, 16 h
[4] = representative data, 16 h, 0.5% DMSO, 2 h loading

C[C@H]1c2cccc(O)c2C(=O)C2=C(O)[C@]3(O)C(=O)C(C(N)=O)=C(O)[C@@H](N(C)C)[C@@H]3[C@@H](O)[C@@H]21 [Doxycycline]
RR (Max) (0.0% DMSO, 10,000 cells/well, 16 h): 6.9 | RR (Max) (0.25% DMSO, 10,000 cells/well, 16 h): 7.2 | RR (Max) (0.50% DMSO, 10,000 cells/well, 16 h): 6.5 | RR (Max) (1.00% DMSO, 10,000 cells/well, 16 h): 5.4 | RR (Max) (1,250 cells/well, clone #20, 16 h, 0.5% DMSO): 3.51 | RR (Max) (2,500 cells/well, clone #20, 16 h, 0.5% DMSO): 4.8 | RR (Max) [1]: 4.5 | RR (Max) (5,000 cells/well, clone #20, 16 h, 0.5% DMSO): 5.93 | RR (Max) [2]: 6.5 | RR (Max) [3]: 6.5 | RR (Max) (10,000 cells/well, clone #20, 16 h, 0.5% DMSO): 7.7 | RR (Max) (Average of DR 1-3): 5.77 | RR (Max) (DR 1 (reproducibility, separate day)): 5.36 | RR (Max) (DR 2 (reproducibility, separate day)): 5.95 | RR (Max) (DR 3 (reproducibility, separate day)): 5.99 | RR (Max) (Fresh cells taken from culture): 5.99 | RR (Max) (Frozen cells thawed immediately before use): 2.48 | EC50 [1]: 0.162 ng/mL (≈ 0.364 nM) | EC50 [2]: 0.151 ng/mL (≈ 0.34 nM) | EC50 [3]: 0.172 ng/mL (≈ 0.388 nM) | EC50 (16 h, 0.0% DMSO, 10,000 cells/well): 0.159 ng/mL (≈ 0.358 nM) | EC50 (16 h, 0.25% DMSO, 10,000 cells/well): 0.197 ng/mL (≈ 0.444 nM) | EC50 (16 h, 0.50% DMSO, 10,000 cells/well): 0.172 ng/mL (≈ 0.388 nM) | EC50 (16 h, 1.00% DMSO, 10,000 cells/well): 0.187 ng/mL (≈ 0.422 nM) | EC50 (16 h, 1,250 cells/well, clone #20, 16 h, 0.5% DMSO): 0.305 ng/mL (≈ 0.687 nM) | EC50 (16 h, 2,500 cells/well, clone #20, 16 h, 0.5% DMSO): 0.216 ng/mL (≈ 0.485 nM) | EC50 (16 h, 5,000 cells/well, clone #20, 16 h, 0.5% DMSO): 0.199 ng/mL (≈ 0.447 nM) | EC50 (16 h, 10,000 cells/well, clone #20, 16 h, 0.5% DMSO): 0.291 ng/mL (≈ 0.655 nM) | EC50 (16 h, DR 1 (reproducibility, separate day), 10,000 cells/well, 0.5% DMSO): 0.246 ng/mL (≈ 0.553 nM) | EC50 (16 h, DR 2 (reproducibility, separate day), 10,000 cells/well, 0.5% DMSO): 0.0963 ng/mL (≈ 0.217 nM) | EC50 (16 h, DR 3 (reproducibility, separate day), 10,000 cells/well, 0.5% DMSO): 0.0533 ng/mL (≈ 0.12 nM) | EC50 (16 h, Fresh cells taken from culture, 10,000 cells/well): 0.0533 ng/mL (≈ 0.12 nM) | EC50 (16 h, Frozen cells thawed immediately before use, 10,000 cells/well, 16 h): > 0.985 ng/mL | EC50 (Average of DR 1-3): 0.132 ng/mL (≈ 0.297 nM) | EC50 (antibiotic selected pool, 10,000 cells/well, 16 h stimulation, 2 h loading): 1.6 ng/mL (≈ 3.6 nM) | EC50 [4]: 0.05 ng/mL (≈ 0.113 nM) | RR (Max) (antibiotic selected pool, 10,000 cells/well, 16 h stimulation): 3.3 | times more potent than tetracycline (antibiotic selected pool, 16 h): ~30 times | EC100 [4]: 2.2 ng/mL
